# Test results from paper PMC4793717 (Pharmacology, 2013).
# Entries after “also recorded” stand apart in the source; their conditions may differ. Read-outs that look alike come from different tables or passages of the source.
# Assays:
# [1] = In vivo pharmacokinetic study of 7,8-DHF, plasma and brain by HPLC-MS/MS; set-up: species or system CD-1 mice; conditions: for half-life: T1/2, plasma
# [2] = target: T1, TrkB receptor (Rattus norvegicus, UniProt Q63604); test: TrkB activation in primary cortical neurons; format: cell-based; conditions: for TrkB activation in primary neurons (p-TrkB Y816): 500 nmol/l, 15 min, primary cortical neurons
# [3] = target: T2, TrkB (Mus musculus, UniProt P15209); test: TrkB activation in mouse brain after oral gavage; format: in vivo, C57BL/6J mice; conditions: 5 mg/kg oral gavage, brain collected at 2 h
# [4] = tested on: mice; test: Forced swim test; format: in vivo, C57BL/6J mice; conditions: 5 mg/kg orally once a day for 21 days
# [5] = tested on: mice; test: Tail suspension test; format: in vivo, C57BL/6J mice; conditions: 5 mg/kg orally once a day for 21 days
# [6] = tested on: dentate gyrus; test: Neurogenesis assay via BrdU incorporation in the dentate gyrus; format: in vivo, C57BL/6J mice; conditions: 5 mg/kg orally for 21 days
# [7] = target: T2, TrkB; test: Immunohistochemistry staining of p-TrkB in the dentate gyrus; format: in vivo, mice; conditions: 5 mg/kg orally for 21 days
# [8] = tested on: TrkB receptor; conditions: cited from earlier work
# [9] = In vitro Caco-2 permeability assay; format: in vitro ADME; conditions: human, Caco-2
# [10] = tested on: Caco-2; test: In vitro Caco-2 permeability assay; format: in vitro ADME; conditions: test conc. 10 μmol/l, 2 h
# [11] = tested on: Akt; test: p-Akt ELISA of mouse brain samples; format: in vivo, C57BL/6J mice; conditions: for p-Akt versus control in entacapone-treated and tolcapone-treated groups (ELISA): COMT inhibitor 30 mg/kg pretreatment, flavonoid 5 mg/kg
# [12] = target: T2, TrkB; conditions: oral administration, at 2 or 4 h; cited from earlier work
# [13] = tested on: mice; conditions: cited from earlier work
# [14] = target: T1, TrkB receptor; conditions: cited from earlier work
# [15] = tested on: dentate gyrus; conditions: chronic treatment; cited from earlier work
# [16] = chronic treatment, dose of 5 mg/kg; cited from earlier work
# [17] = male, CD-1, mouse, plasma, po, 50 mg/kg, mice, after 7,8-DHF p.o. 50 mg/kg
# [18] = mice, after 7,8-DHF p.o. 50 mg/kg
# [19] = male, CD-1, mouse, plasma, po, 50 mg/kg
# T1 sequence (Q63604 32-821): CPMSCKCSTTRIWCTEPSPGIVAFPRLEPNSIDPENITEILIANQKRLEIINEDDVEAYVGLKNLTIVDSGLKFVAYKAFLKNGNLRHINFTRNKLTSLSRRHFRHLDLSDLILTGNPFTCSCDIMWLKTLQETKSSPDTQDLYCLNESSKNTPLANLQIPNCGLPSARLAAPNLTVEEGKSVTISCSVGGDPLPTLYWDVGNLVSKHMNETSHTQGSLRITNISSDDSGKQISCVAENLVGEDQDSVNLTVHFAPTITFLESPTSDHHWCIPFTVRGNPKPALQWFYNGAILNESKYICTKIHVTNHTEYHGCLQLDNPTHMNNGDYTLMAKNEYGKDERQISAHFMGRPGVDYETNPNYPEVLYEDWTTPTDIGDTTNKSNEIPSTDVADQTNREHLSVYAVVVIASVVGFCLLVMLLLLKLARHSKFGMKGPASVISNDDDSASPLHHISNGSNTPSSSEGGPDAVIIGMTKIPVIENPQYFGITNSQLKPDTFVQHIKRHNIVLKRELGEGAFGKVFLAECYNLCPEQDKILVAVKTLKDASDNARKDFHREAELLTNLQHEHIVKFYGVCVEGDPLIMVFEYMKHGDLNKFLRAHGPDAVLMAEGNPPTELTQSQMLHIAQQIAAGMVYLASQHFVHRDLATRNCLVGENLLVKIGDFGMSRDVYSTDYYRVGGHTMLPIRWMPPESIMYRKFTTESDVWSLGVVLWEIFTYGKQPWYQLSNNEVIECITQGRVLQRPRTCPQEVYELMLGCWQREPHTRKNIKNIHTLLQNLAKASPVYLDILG
# T2 sequence (P15209 32-821): as the sequence (Q63604 32-821) above, with M3T, T9S, T10A, I32V, K63R, G84S, T153M, I185L, T394S, N770S counted along it
molecule,measurement,setting,value
"COc1ccc2c(=O)cc(-c3ccccc3)oc2c1O [H428, 7-methoxy-8-hydroxyflavone]",half-life,[1]; [17],1.53 h
same,earliest detection in plasma,[1]; [18],3 min
same,plasma concentration at 6 h,[1]; [18],below the quantitative limit
same,detection in mouse brain at any time,"[1]; mice, after 7,8-DHF p.o. 50 mg/kg, 50 mg/kg",below the limit of quantification
same,TrkB activation in primary neurons (p-TrkB Y816),[2],activates the TrkB receptor in primary neurons
same,TrkB activation in mouse brain (p-TrkB Y816),[3],clearly activated the TrkB receptor compared to vehicle control
same,immobility in FST,[4],strongest effect
same,immobility in TST,[5],substantially decreased the immobility
same,neurogenesis (BrdU-positive cells in the dentate gyrus),[6],significantly promoted neurogenesis compared to vehicle
same,TrkB phosphorylation in the dentate gyrus (immunohistochemistry),[7],strongly provoked TrkB phosphorylation in the dentate gyrus
"O=c1cc(-c2ccccc2)oc2cc(O)c(O)cc12 [6,7-dihydroxyflavone]",TrkB agonistic effect,[8],possess a TrkB agonistic effect
COc1ccc2c(=O)cc(-c3ccccc3)oc2c1OC [D024],TrkB activation in mouse brain (p-TrkB Y816),[3],"elicited TrkB activation (p-TrkB Y816), but the effect was not as strong as that of the other two compounds"
same,p-TrkB 706 immunoblotting in mouse brain,[3],elicited the strongest p-TrkB signal
"O=c1cc(-c2ccccc2)oc2cc(O)cc(O)c12 [5,7-dihydroxyflavone]",TrkB agonistic effect,[8],"but not 5,6-dihydroxyflavone or 5,7-dihydroxyflavone possess a TrkB agonistic effect"
"O=c1cc(-c2ccccc2)oc2ccc(O)c(O)c12 [5,6-dihydroxyflavone]",TrkB agonistic effect,[8],"but not 5,6-dihydroxyflavone or 5,7-dihydroxyflavone possess a TrkB agonistic effect"
"CNC(=C[N+](=O)[O-])NCCSCc1ccc(CN(C)C)o1 [Ranitidine, reference compound]","Papp A→B at 2 h, 10 μmol/l",[9],0.3 ×10⁻⁶ cm/s
same,"Papp B→A at 2 h, 10 μmol/l",[9],2.9 ×10⁻⁶ cm/s
same,"efflux ratio at 2 h, 10 μmol/l",[9],10.9
same,Comment (Caco-2 permeability),[10],"low permeability, efflux"
"O=c1cc(-c2cccc(O)c2)oc2cc(O)c(O)cc12 [6,7,3′-trihydroxyflavone]",TrkB agonistic effect,[8],possess a TrkB agonistic effect
"CN(C)c1ccc(-c2cc(=O)c3ccc(O)c(O)c3o2)cc1 [4′-DMA-7,8-DHF, 4′-dimethylamino-7,8-DHF]",Comment (Caco-2 permeability),[10],poor recovery A to B
same,Mean A→B Papp,[10],0.9 10^−6 cm•s^−1
same,Mean B→A Papp,[10],3.1 10^−6 cm•s^−1
same,Efflux ratio,[10]; >2 indicates significant efflux activity,3.6
same,TrkB activation in primary neurons (p-TrkB Y816),[2],"more robust TrkB agonistic activity than 7,8-DHF; also recorded: activated TrkB receptor signaling pathways in primary neurons"
same,TrkB activation in mouse brain (p-TrkB Y816),[3],obviously activated TrkB compared to vehicle control
same,Akt activation in mouse brain (p-Akt ELISA),"[11]; 1 mg/kg oral, 2 h",potently activated Akt
same,p-Akt versus control in entacapone-treated and tolcapone-treated groups (ELISA),[11],no significant changes
same,TrkB activation in mouse brain,[12],evidently activates the TrkB receptor in mouse brain
same,immobility in FST,[13]; chronic treatment,robustly decreased the immobility in FST after chronic treatment
"CC(=O)CC(c1ccccc1)c1c(O)c2ccccc2oc1=O (centres unmarked) [Warfarin, reference compound]","Papp A→B at 2 h, 10 μmol/l",[9],52.6 ×10⁻⁶ cm/s
same,"Papp B→A at 2 h, 10 μmol/l",[9],18.3 ×10⁻⁶ cm/s
same,"efflux ratio at 2 h, 10 μmol/l",[9],0.3
same,Comment (Caco-2 permeability),[10],high permeability control
"O=c1cc(-c2ccccc2)oc2c(O)c(O)ccc12 [7,8-DHF, 7,8-Dihydroxyflavone]",brain concentration of parent compound relative to methylated metabolite,"[1]; brain, mice, after 7,8-DHF p.o. 50 mg/kg",approximately 30 fold
same,Cmax,"[1]; male, CD-1, mouse, brain, po, 50 mg/kg",70 ng/mL
same,AUC(0-inf),[1]; [19],125 ng·h/mL
same,AUC(0-t),[1]; [19],108 ng·h/mL
same,Cmax,[1]; [19],70 ng/mL
same,Tmax,[1]; [19],0.167 h
same,half-life,[1]; [17],~2.23 h
same,brain concentration at 6 h,[1]; [18],below the quantitative limit
same,penetration of the brain-blood barrier,"[1]; mice, oral dosing of 50 mg/kg 7,8-DHF",can penetrate the brain-blood barrier
same,"Papp A→B at 2 h, 10 μmol/l",[9],1.5 ×10⁻⁶ cm/s
same,"Papp B→A at 2 h, 10 μmol/l",[9],1.7 ×10⁻⁶ cm/s
same,"efflux ratio at 2 h, 10 μmol/l",[9],1.2
same,Comment (Caco-2 permeability),[10],poor recovery A to B
same,TrkB activation in mouse brain (p-TrkB Y816),[3],clearly activated the TrkB receptor compared to vehicle control; also recorded: obviously activated TrkB compared to vehicle control
same,p-Akt versus control in entacapone-treated and tolcapone-treated groups (ELISA),[11],no significant changes
same,concentration at which TrkB phosphorylation was prominent,[14],100 nmol/L
same,TrkB activation in mouse brain,[12],evidently activates the TrkB receptor in mouse brain
same,latency of immobility,[13]; acute injection,has no effect on the latency of immobility
same,immobility in FST,[13]; chronic treatment,robustly decreased the immobility in FST after chronic treatment
same,immobility in FST,[13]; subchronic intraperitoneal injection,significantly decreases immobility in FST
same,neurogenesis in the dentate gyrus,[15],enhances neurogenesis in the dentate gyrus
same,toxicity,[16],reveals no demonstrable toxicity
"COc1c(O)ccc2c(=O)cc(-c3ccccc3)oc12 [8-methoxy-metabolite, 7-hydroxy-8-methoxyflavone]",half-life,[1]; [17],2.47 h
same,earliest observation in brain,[1]; [18],3 min
"BDNF: Brain-derived neurotrophic factor, member of the neurotrophin family; positive control from Roche (protein, UniProt P23560 19-247, looked up) Neurotrophic factor BDNF …: APMKEANIRGQGGLAYPGVRTHGTLESVNGPKAGSRGLTSLADTFEHVIEELLDEDQKVRPNEENNKDADLYTSRVMLSSQVPLEPPLLFLLEEYKNYLDAANMSMRVRRHSDPARRGELSVCDSISEWVTAADKKTAVDMSGGTVTVLEKVPVSKGQLKQYFYETKCNPMGYTKEGCRGIDKRHWNSQCRTTQSYVRALTMDSKKRIGWRFIRIDTSCVCTLTIKRGR",concentration eliciting TrkB activation,[2]; titration assay in primary neurons,1 to 30 nmol/L
